ChEMBL document CHEMBL4680171, “Oxadiazolylthiazoles as novel and selective antifungal agents” (Eur J Med Chem, 2020)
≈ marks a conversion by molar mass, not a printed value. Calls of active or inactive are those of the source. The calls are words filed in the database; no cut-off is given here.

Columns and labels:
Staphylococcus aureus = test: Antibacterial activity against methicillin resistant Staphylococcus aureus subsp. aureus USA300 assessed as reduction in bacterial growth by CLSI based broth microdilution method; type: functional
Escherichia coli [1] = test: Antibacterial activity against Escherichia coli JW55031 harboring tolC mutation assessed as reduction in bacterial growth by CLSI based broth microdilution method; type: functional
Escherichia coli [2] = test: Antibacterial activity against Escherichia coli BW25113 assessed as reduction in bacterial growth by CLSI based broth microdilution method; type: functional
Clostridioides difficile = test: Antibacterial activity against Clostridium difficile BAA1870 assessed as reduction in bacterial growth by CLSI based broth microdilution method; type: functional
Candida albicans [3] = test: Antifungal activity against Candida albicans SS5314 assessed as reduction in fungal growth by CLSI based broth microdilution method; type: functional
Aspergillus fumigatus [4] = test: Antifungal activity against Aspergillus fumigatus NR 35303 assessed as reduction in fungal growth incubated for 24 hrs by CLSI based broth microdilution method; type: functional
Aspergillus fumigatus [5] = test: Antifungal activity against Aspergillus fumigatus NR 35304 assessed as reduction in fungal growth incubated for 24 hrs by CLSI based broth microdilution method; type: functional
Candida albicans [6] = test: Antifungal activity against Candida albicans ATCC 10231 assessed as reduction in fungal growth incubated for 24 hrs by CLSI based broth microdilution method; type: functional
Candida albicans [7] = test: Antifungal activity against fluconazole-resistant Candida albicans NR29448 assessed as reduction in fungal growth incubated for 24 hrs by CLSI based broth microdilution method; type: functional
[Candida] auris [8] = Antifungal activity against fluconazole-resistant Candida auris 381 assessed as reduction in fungal growth incubated for 24 hrs by CLSI based broth microdilution method; type: functional; conditions: Candidozyma auris
[Candida] auris [9] = Antifungal activity against fluconazole-resistant Candida auris 383 assessed as reduction in fungal growth incubated for 24 hrs by CLSI based broth microdilution method; type: functional; conditions: Candidozyma auris
[Candida] auris [10] = Antifungal activity against fluconazole-resistant Candida auris 384 assessed as reduction in fungal growth incubated for 24 hrs by CLSI based broth microdilution method; type: functional; conditions: Candidozyma auris
Nakaseomyces glabratus [11] = test: Antifungal activity against Candida glabrata ATCC 66032 assessed as reduction in fungal growth incubated for 24 hrs by CLSI based broth microdilution method; type: functional
Nakaseomyces glabratus [12] = test: Antifungal activity against Candida glabrata ATCC MYA-2950 assessed as reduction in fungal growth incubated for 24 hrs by CLSI based broth microdilution method; type: functional
Candida parapsilosis [13] = test: Antifungal activity against Candida parapsilosis ATCC 22019 assessed as reduction in fungal growth incubated for 24 hrs by CLSI based broth microdilution method; type: functional; conditions: Lodderomyces parapsilosis
Candida parapsilosis [14] = test: Antifungal activity against Candida parapsilosis CAB 502638 assessed as reduction in fungal growth incubated for 24 hrs by CLSI based broth microdilution method; type: functional; conditions: Lodderomyces parapsilosis
Pichia kudriavzevii [15] = test: Antifungal activity against Candida krusei CAB 396420 assessed as reduction in fungal growth incubated for 24 hrs by CLSI based broth microdilution method; type: functional
Pichia kudriavzevii [16] = test: Antifungal activity against Candida krusei ATCC 34135 assessed as reduction in fungal growth incubated for 24 hrs by CLSI based broth microdilution method; type: functional
Cryptococcus neoformans [17] = test: Antifungal activity against Cryptococcus neoformans NR41298 assessed as reduction in fungal growth incubated for 48 hrs by CLSI based broth microdilution method; type: functional
Cryptococcus neoformans [18] = test: Antifungal activity against Cryptococcus neoformans NR41300 assessed as reduction in fungal growth incubated for 48 hrs by CLSI based broth microdilution method; type: functional
Cryptococcus neoformans [19] = test: Antifungal activity against Cryptococcus neoformans NR48770 assessed as reduction in fungal growth incubated for 48 hrs by CLSI based broth microdilution method; type: functional
[20] = tested on: Cryptococcus gattii species complex; test: Antifungal activity against Cryptococcus gattii NR43210 assessed as reduction in fungal growth incubated for 48 hrs by CLSI based broth microdilution method; type: functional, Cryptococcus bacillisporus
[21] = tested on: Cryptococcus gattii species complex; test: Antifungal activity against Cryptococcus gattii NR43209 assessed as reduction in fungal growth incubated for 48 hrs by CLSI based broth microdilution method; type: functional, Cryptococcus bacillisporus
Lactobacillus gasseri = test: Antibacterial activity against Lactobacillus gasseri HM-400 assessed as reduction in bacterial growth by CLSI based assay
Lacticaseibacillus casei = test: Antibacterial activity against Lactobacillus casei HM-334 assessed as reduction in bacterial growth by CLSI based assay; type: organism-based
Lactobacillus crispatus = test: Antibacterial activity against Lactobacillus crispatus HM-370 assessed as reduction in bacterial growth by CLSI based assay
Candida albicans [22] = test: Antibiofilm activity against Candida albicans NR29448 assessed as reduction in biofilm formation at 0.5XMIC incubated for 24 hrs by crystal violet staining based assay relative to control; type: functional
Candida albicans [23] = test: Antibiofilm activity against 24 hrs preformed biofilm of Candida albicans NR29448 assessed as disruption of mature biofilm at 64 ug/ml incubated for 24 hrs by crystal violet staining based spectrophotometry relative to control; type: functional; conditions: dose 64.0 µg/ml
Candida albicans [24] = test: Fungistatic activity against Candida albicans SS5314 at 5 to 10x MIC measured for 36 hrs by time kill assay; type: functional, organism-based
Candida albicans [25] = test: Antifungal activity against Candida albicans SS5314 assessed as reduction in fungal growth measured after 10 passages by CLSI based broth microdilution method; type: functional, organism-based
Candida albicans [26] = test: Antifungal activity against Candida albicans SS5314 assessed as reduction in fungal growth incubated for 24 hrs by CLSI based broth microdilution method; type: functional

For `CC(=O)NC[C@H]1CN(c2ccc(N3CCOCC3)c(F)c2)C(=O)O1` [LINEZOLID], the MIC (Staphylococcus aureus) was 1 µg/mL (≈ 2.96 µM), the MIC (Escherichia coli [1]) was 8 µg/mL (≈ 23.7 µM) and the MIC (Escherichia coli [2]) was > 64 µg/mL. It also gave an MIC (Clostridioides difficile) of 1 µg/mL (≈ 2.96 µM).
For `Cc1nc(-c2ccc(C(C)(C)C)cc2)sc1-c1nnc(NCCCN)o1`, the MIC (Staphylococcus aureus) was > 64 µg/mL, the MIC (Escherichia coli [1]) was > 64 µg/mL and the MIC (Escherichia coli [2]) was > 64 µg/mL. It also gave an MIC (Clostridioides difficile) of 64 µg/mL (≈ 172 µM) and an MIC (Candida albicans [3]) of 16 µg/mL (≈ 43.1 µM).
In the case of `CCC(C)n1ncn(-c2ccc(N3CCN(c4ccc(OCC5COC(Cn6cncn6)(c6ccc(Cl)cc6Cl)O5)cc4)CC3)cc2)c1=O` (stereo not drawn) [ITRACONAZOLE], the MIC (Aspergillus fumigatus [4]) is reported as 1 µg/mL (≈ 1.42 µM) and the MIC (Aspergillus fumigatus [5]) is reported as 1 µg/mL (≈ 1.42 µM).
`Cc1nc(-c2ccc(C(C)(C)C)cc2)sc1-c1nnc(N2CC[C@@H](N(C)C)C2)o1` was tested, and the MIC (Staphylococcus aureus) was > 64 µg/mL, the MIC (Escherichia coli [1]) was > 64 µg/mL and the MIC (Escherichia coli [2]) was > 64 µg/mL. For the same compound, the MIC (Clostridioides difficile) was > 64 µg/mL and the MIC (Candida albicans [3]) was > 64 µg/mL.
`Cc1nc(-c2ccc(C(C)(C)C)cc2)sc1-c1nnc(N[C@@H]2CCCC[C@H]2N)o1` (relative stereo) was tested, and the MIC (Staphylococcus aureus) was 64 µg/mL (≈ 156 µM), the MIC (Escherichia coli [1]) was > 64 µg/mL and the MIC (Escherichia coli [2]) was > 64 µg/mL. It also gave an MIC (Clostridioides difficile) of 16 µg/mL (≈ 38.9 µM) and an MIC (Candida albicans [3]) of 64 µg/mL (≈ 156 µM).
`OC(Cn1cncn1)(Cn1cncn1)c1ccc(F)cc1F` [FLUCONAZOLE] was tested, and the MIC (Candida albicans [3]) was > 64 µg/mL, the MIC (Candida albicans [6]) was 1 µg/mL (≈ 3.27 µM) and the MIC (Candida albicans [7]) was > 128 µg/mL. The MIC ([Candida] auris [8]) was 2 µg/mL (≈ 6.53 µM), the MIC ([Candida] auris [9]) was 128 µg/mL (≈ 418 µM) and the MIC ([Candida] auris [10]) was > 128 µg/mL. The MIC (Nakaseomyces glabratus [11]) was 8 µg/mL (≈ 26.1 µM), the MIC (Nakaseomyces glabratus [12]) was 16 µg/mL (≈ 52.2 µM) and the MIC (Candida parapsilosis [13]) was 1 µg/mL (≈ 3.27 µM). The MIC (Candida parapsilosis [14]) was 0.5 µg/mL (≈ 1.63 µM), the MIC (Pichia kudriavzevii [15]) was 16 µg/mL (≈ 52.2 µM) and the MIC (Pichia kudriavzevii [16]) was 16 µg/mL (≈ 52.2 µM). For the same compound, the MIC (Cryptococcus neoformans [17]) was 2 µg/mL (≈ 6.53 µM), the MIC (Cryptococcus neoformans [18]) was 1 µg/mL (≈ 3.27 µM) and the MIC (Cryptococcus neoformans [19]) was 2 µg/mL (≈ 6.53 µM). The MIC [20] was 4 µg/mL (≈ 13.1 µM), the MIC [21] was 4 µg/mL (≈ 13.1 µM) and the MIC (Aspergillus fumigatus [4]) was > 64 µg/mL. For the same compound, the MIC (Aspergillus fumigatus [5]) was > 64 µg/mL, the MIC (Lactobacillus gasseri) was > 128 µg/mL and the MIC (Lacticaseibacillus casei) was > 128 µg/mL. For the same compound, the MIC (Lactobacillus crispatus) was > 128 µg/mL, the “inhibition (INH)” value (Candida albicans [22]) was 50% and the Activity (Candida albicans [23]) was “inactive”. The Activity (Candida albicans [24]) was “Active”, the Activity (Candida albicans [25]) was “Active” and the MIC (Candida albicans [26]) was 1 µg/mL (≈ 3.27 µM).
`Cc1nc(-c2ccc(C(C)(C)C)cc2)sc1-c1nnc(N2CCC[C@H]2C(N)=O)o1` was tested, and the MIC (Staphylococcus aureus) was > 64 µg/mL, the MIC (Escherichia coli [1]) was 64 µg/mL (≈ 156 µM) and the MIC (Escherichia coli [2]) was > 64 µg/mL. For the same compound, the MIC (Clostridioides difficile) was 32 µg/mL (≈ 77.8 µM) and the MIC (Candida albicans [3]) was > 64 µg/mL.
In the case of `Cc1nc(-c2ccc(C(C)(C)C)cc2)sc1-c1nnc(NC2CCNC2)o1` (stereo not drawn), the MIC (Staphylococcus aureus) is reported as 32 µg/mL (≈ 83.4 µM), the MIC (Escherichia coli [1]) is reported as 32 µg/mL (≈ 83.4 µM) and the MIC (Escherichia coli [2]) is reported as > 64 µg/mL. For the same compound, the MIC (Clostridioides difficile) was 16 µg/mL (≈ 41.7 µM) and the MIC (Candida albicans [3]) was > 64 µg/mL.
With `Cc1nc(-c2ccc(C(C)(C)C)cc2)sc1-c1nnc(NC(CO)CO)o1` the MIC (Staphylococcus aureus) was > 64 µg/mL, the MIC (Escherichia coli [1]) was > 64 µg/mL and the MIC (Escherichia coli [2]) was > 64 µg/mL. The MIC (Clostridioides difficile) was > 64 µg/mL and the MIC (Candida albicans [3]) was > 64 µg/mL.
For `Cc1nc(-c2ccc(C(C)(C)C)cc2)sc1-c1nnc(NCC(O)CO)o1` (stereo not drawn), the MIC (Staphylococcus aureus) was > 64 µg/mL, the MIC (Escherichia coli [1]) was > 64 µg/mL and the MIC (Escherichia coli [2]) was > 64 µg/mL. For the same compound, the MIC (Clostridioides difficile) was 32 µg/mL (≈ 82.4 µM) and the MIC (Candida albicans [3]) was > 64 µg/mL.
With `Cc1nc(-c2ccc(C(C)(C)C)cc2)sc1-c1nnc(N2CCC[C@@H]2C(N)=O)o1` the MIC (Staphylococcus aureus) was > 64 µg/mL, the MIC (Escherichia coli [1]) was > 64 µg/mL and the MIC (Escherichia coli [2]) was > 64 µg/mL. For the same compound, the MIC (Clostridioides difficile) was 32 µg/mL (≈ 77.8 µM) and the MIC (Candida albicans [3]) was > 64 µg/mL.
With `Cc1nc(-c2ccc(C(C)(C)C)cc2)sc1-c1nnc(NCCO)o1` the MIC (Staphylococcus aureus) was > 64 µg/mL, the MIC (Escherichia coli [1]) was > 64 µg/mL and the MIC (Escherichia coli [2]) was > 64 µg/mL. For the same compound, the MIC (Clostridioides difficile) was 32 µg/mL (≈ 89.3 µM) and the MIC (Candida albicans [3]) was > 64 µg/mL.
